What follows are compounds tested on production and secretion of NGF in mouse L-M cells (assay: Promoting activity for the production and secretion of NGF in mouse L-M cells (ELISA of medium after 24 h)). Details: Mus musculus, 24 h, read-out: NGF Increase Ratio.
Assay type: cell-based
Protocol: Promoting activity for the production and secretion of NGF in mouse L-M cells
The medium was cultured for 3 days at a temperature of 37° C. […] The sample of the derivative tested is contained in the medium at a prescribed concentration as illustrated in the Tables. […] Data are expressed as fold increase in NGF content of the medium over that cultivated in the absence of the derivative to be tested. […] Data are presented as the mean of four determinations. The results are illustrated in Tables 1-5.
CCCNCCc1ccc(O)c(O)c1 [Compound 20] gave a fold induction at 200 µM of 11.
In the case of CCN(C)CCc1ccc(OC(C)=O)c(OC(C)=O)c1 [Compound 31], the fold induction at 200 µM is reported as 11.4.
Compound CC(=O)Oc1ccc(CCN(C)C)cc1OC(C)=O [Compound 30] has a fold induction at 200 µM of 11.5.
For NCCc1ccc(O)c(O)c1 [Comparative compound, reference compound], the fold induction at 200 µM was 3.94.

Same assay, conditions: Mus musculus, 24 h; Table 1; L-M cells; sample concentration 0.2 mM; fold increase over control (1.00); read-out: NGF Increase Ratio
CCC(=O)NCCc1ccc(OC(C)=O)c(OC(C)=O)c1 [Compound 14] showed a fold induction at 200 µM of 10.6.
Compound CCC(=O)NCCc1ccc(O)c(O)c1 [Compound 2] has a fold induction at 200 µM of 9.39.
CCC(=O)NCCCc1ccc(O)c(O)c1 [Compound 8] was tested, and the fold induction at 200 µM was 8.79.
CCNCCCc1ccc(O)c(O)c1 [Compound 27] showed a fold induction at 200 µM of 8.76.
Compound CC(=O)NCc1ccc(OC(C)=O)c(OC(C)=O)c1 [Compound 16] has a fold induction at 200 µM of 8.24.
CNCc1ccc(O)c(O)c1 [Compound 22] gave a fold induction at 200 µM of 9.
With CC(=O)Oc1ccc(CCN(C)C(C)=O)cc1OC(C)=O [Compound 18] the fold induction at 200 µM was 12.
Compound CCC(=O)N(C)CCc1ccc(O)c(O)c1 [Compound 11] has a fold induction at 200 µM of 10.1.

Same assay, conditions: Mus musculus, 24 h; Table 2; L-M cells; sample concentration 0.2 mM; fold increase over control (1.00); read-out: NGF Increase Ratio
CCCOC(=O)Cc1ccc(OC(C)=O)c(OC(C)=O)c1 [Compound 52] was tested, and the fold induction at 200 µM was 5.53.
In the case of COC(=O)CCCc1ccc(O)c(O)c1 [Compound 42], the fold induction at 200 µM is reported as 5.32.
CCCOC(=O)CCCc1ccc(O)c(O)c1 [Compound 44] showed a fold induction at 200 µM of 5.62.
NC(=O)Cc1ccc(O)c(O)c1 [Compound 62] showed a fold induction at 200 µM of 4.79.
NC(=O)CCCc1ccc(O)c(O)c1 [Compound 67] showed a fold induction at 200 µM of 4.97.
COC(=O)CCc1ccc(OC(C)=O)c(OC(C)=O)c1 [Compound 46] showed a fold induction at 200 µM of 5.91.
Compound CCCCOC(=O)Cc1ccc(OC(C)=O)c(OC(C)=O)c1 [Compound 53] has a fold induction at 200 µM of 4.79.
For CCCCNC(=O)CCCc1ccc(O)c(O)c1 [Compound 71], the fold induction at 200 µM was 5.71.
Work on CCCCNC(=O)Cc1ccc(O)c(O)c1 [Compound 66] yielded a fold induction at 200 µM of 5.85.
Work on CNC(=O)Cc1ccc(O)c(O)c1 [Compound 63] yielded a fold induction at 200 µM of 5.82.
CCCNC(=O)CCc1ccc(O)c(O)c1 [Compound 61] gave a fold induction at 200 µM of 5.91.
With CCCCOC(=O)CCCc1ccc(OC(C)=O)c(OC(C)=O)c1 [Compound 57] the fold induction at 200 µM was 5.32.
CCCOC(=O)CCc1ccc(O)c(O)c1 [Compound 36] gave a fold induction at 200 µM of 5.53.
With CCCCNC(=O)CCCc1ccc(OC(C)=O)c(OC(C)=O)c1 [Compound 80] the fold induction at 200 µM was 5.74.
Compound CNC(=O)CCc1ccc(O)c(O)c1 [Compound 59, N-Methyl-3,4-dihydroxyphenylpropionamide] has a fold induction at 200 µM of 5.62.
Compound COC(=O)Cc1ccc(O)c(O)c1 [Compound 38] has a fold induction at 200 µM of 4.79.
Compound CCCNC(=O)CCCc1ccc(O)c(O)c1 [Compound 70] has a fold induction at 200 µM of 5.38.

Same assay, conditions: Table 1; L-M cells; sample concentration 0.2 mM; 24 hours; mean of four determinations; control 0.33
In the case of CCC(=O)NCCc1ccc(OC(C)=O)c(OC(C)=O)c1 [Compound 14], the “NGF Concentration” value is reported as 3.49 ng/well.
In the case of CCC(=O)NCCc1ccc(O)c(O)c1 [Compound 2], the “NGF Concentration” value is reported as 3.10 ng/well.
For CCC(=O)NCCCc1ccc(O)c(O)c1 [Compound 8], the “NGF Concentration” value was 2.90 ng/well.
In the case of CCNCCCc1ccc(O)c(O)c1 [Compound 27], the “NGF Concentration” value is reported as 2.89 ng/well.
For CCCNCCc1ccc(O)c(O)c1 [Compound 20], the “NGF Concentration” value was 3.62 ng/well.
For CC(=O)NCc1ccc(OC(C)=O)c(OC(C)=O)c1 [Compound 16], the “NGF Concentration” value was 2.72 ng/well.
CNCc1ccc(O)c(O)c1 [Compound 22] was tested, and the “NGF Concentration” value was 2.97 ng/well.
With CC(=O)Oc1ccc(CCN(C)C(C)=O)cc1OC(C)=O [Compound 18] the “NGF Concentration” value was 3.95 ng/well.
In the case of CCC(=O)N(C)CCc1ccc(O)c(O)c1 [Compound 11], the “NGF Concentration” value is reported as 3.32 ng/well.
CCN(C)CCc1ccc(OC(C)=O)c(OC(C)=O)c1 [Compound 31] was tested, and the “NGF Concentration” value was 3.76 ng/well.
In the case of CC(=O)Oc1ccc(CCN(C)C)cc1OC(C)=O [Compound 30], the “NGF Concentration” value is reported as 3.80 ng/well.
With NCCc1ccc(O)c(O)c1 [Comparative compound, reference compound] the “NGF Concentration” value was 1.30 ng/well.

Same assay, conditions: Table 2; L-M cells; sample concentration 0.2 mM; 24 hours; mean of four determinations; control 0.34
CCCOC(=O)Cc1ccc(OC(C)=O)c(OC(C)=O)c1 [Compound 52] was tested, and the “NGF Concentration” value was 1.88 ng/well.
For COC(=O)CCCc1ccc(O)c(O)c1 [Compound 42], the “NGF Concentration” value was 1.81 ng/well.
CCCOC(=O)CCCc1ccc(O)c(O)c1 [Compound 44] was tested, and the “NGF Concentration” value was 1.91 ng/well.
With NC(=O)Cc1ccc(O)c(O)c1 [Compound 62] the “NGF Concentration” value was 1.63 ng/well.
For NC(=O)CCCc1ccc(O)c(O)c1 [Compound 67], the “NGF Concentration” value was 1.69 ng/well.
With COC(=O)CCc1ccc(OC(C)=O)c(OC(C)=O)c1 [Compound 46] the “NGF Concentration” value was 2.01 ng/well.
CCCCOC(=O)Cc1ccc(OC(C)=O)c(OC(C)=O)c1 [Compound 53] was tested, and the “NGF Concentration” value was 1.63 ng/well.
CCCCNC(=O)CCCc1ccc(O)c(O)c1 [Compound 71] was tested, and the “NGF Concentration” value was 1.83 ng/well.
In the case of CCCCNC(=O)Cc1ccc(O)c(O)c1 [Compound 66], the “NGF Concentration” value is reported as 1.99 ng/well.
In the case of CNC(=O)Cc1ccc(O)c(O)c1 [Compound 63], the “NGF Concentration” value is reported as 1.98 ng/well.
CCCNC(=O)CCc1ccc(O)c(O)c1 [Compound 61] was tested, and the “NGF Concentration” value was 2.01 ng/well.
For CCCCOC(=O)CCCc1ccc(OC(C)=O)c(OC(C)=O)c1 [Compound 57], the “NGF Concentration” value was 1.81 ng/well.
For CCCOC(=O)CCc1ccc(O)c(O)c1 [Compound 36], the “NGF Concentration” value was 1.88 ng/well.
With CCCCNC(=O)CCCc1ccc(OC(C)=O)c(OC(C)=O)c1 [Compound 80] the “NGF Concentration” value was 1.95 ng/well.
For CNC(=O)CCc1ccc(O)c(O)c1 [Compound 59, N-Methyl-3,4-dihydroxyphenylpropionamide], the “NGF Concentration” value was 1.91 ng/well.
In the case of COC(=O)Cc1ccc(O)c(O)c1 [Compound 38], the “NGF Concentration” value is reported as 1.63 ng/well.
In the case of CCCNC(=O)CCCc1ccc(O)c(O)c1 [Compound 70], the “NGF Concentration” value is reported as 1.83 ng/well.

Source: patent US5232923A, “Catechol derivatives and pharmaceutical preparations containing same” (Mitsui Toatsu Chemicals, Incorporated, priority 1988, dated 1993)
